Structures can show the parent of a compound that is named as a salt.
Assays:
[1] = pKa and ionization state (species distribution) at the pH of the media; format: physicochemical
[2] = particle size distribution by laser diffractometry (Mastersizer 2000); format: physicochemical
Experimental: For Laser Diffractometry, 0.1 mL of milled suspensions were dispersed in 100 mL of demineralized water at a mixing speed of 1500 rpm with Mastersizer Hydro 2000 SM small volume dispersion unit. The particle size of the samples was measured at 25 ± 1 °C using a Mastersizer 2000 (Malvern Instruments Ltd., Malvern, UK). Laser diffraction measures the angular distribution of light scattered by the diluted sample and detects particles from 0.1 to 3000 μm. General purpose measurement with enhanced sensitivity mode was utilized, which was also useful for sample characterizations containing irregularly shaped particles. Every sample was measured three times individually, and the mean values were reported to track the changing of the particle size and span values (width of particle size distributions).

[3] = equilibrium solubility by the saturation shake-flask (SSF) method in FaSSIF/FeSSIF blank and full media; details: blank buffers, 37 °C
Experimental: The equilibrium solubility of the samples was determined by the SSF method. The concentrations for the blank buffers were available at the manufacturer. FaSSIF full and FeSSIF full buffers were prepared from instant SIF powder added to the blank buffers and could be used for 48 h. For FaSSIF, a full 0.224 g of SIF powder was dissolved in 100 mL of blank phosphate buffer (pH = 6.5). After 2 h, a slightly opalesque solution was formed and it meant that it was ready for the measurement. For FeSSIF, a full 1.12 g of SIF powder was dissolved in 100 mL of blank acetate buffer (pH = 5.0) and was ready to use. The samples were added in excess to the aqueous buffer solutions to produce a suspension. To measure the original samples and the micronized forms in the presence of the excipients, the same 1 to 1 mass ratio was used as in the case of nanonized samples: a physical mixture was prepared from the API and the PVA or PVPK-25.
The prepared suspensions were vigorously stirred for 6 h at a controlled 37.0 ± 0.1 °C temperature followed by a sedimentation period of 18 h. […] The concentration of the saturated solutions was determined by UV spectroscopy using a Jasco V-550 UV/VIS spectrophotometer. The aliquots taken out from solubility experiments were diluted if necessary with the buffer used for the given solubility measurement, and the absorbance was measured at the λmax. […]

[4] = ampholyte; cited from earlier work
[5] = original and micronized compounds before solubility measurement, upper size limit for 10% of particles
[6] = original and micronized compounds before solubility measurement, upper size limit for 50% of particles
[7] = original and micronized compounds before solubility measurement, upper size limit for 90% of particles
[8] = solid phase at end of solubility measurement, pH = 5.0
[9] = solid phase at end of solubility measurement, pH = 6.5
[10] = pH = 5.0, calculated from protonation microconstants

H2A (non-ionized form) ([1]; pH = 5.0) | HA− (monoanionic form) ([1]; pH = 5.0) | d = 0.1 [2, 5] | d = 0.5 [2, 6] | d = 0.9 [2, 7] | d = 0.1 [2, 8] | d = 0.5 [2, 8] | d = 0.9 [2, 8] | d = 0.1 [2, 9] | d = 0.5 [2, 9] | d = 0.9 [2, 9] | solubility in pH = 5.0 medium compared with pH = 6.5 medium [3] | anionic form [1, 10] | neutral form [1, 10] | zwitterionic form [1, 10] | anionic form ([1]; pH = 6.5, calculated from protonation microconstants) | SMILES | pKa1 [4] | pKa2 [4] | molecules protonated ([1]; pH = 5.0) | molecule in deprotonated state ([1]; pH = 6.5)
3.3% | 96.7% | 7.36 µm | 62.46 µm | 294.13 µm | 16.24 µm | 51.23 µm | 110.56 µm | 4.72 µm | 14.63 µm | 35.04 µm |  |  |  |  |  | NS(=O)(=O)c1cc(C(=O)O)c(NCc2ccco2)cc1Cl [FUR original, furosemide] |  |  |  | 
 |  | 71.45 µm | 183.25 µm | 579.83 µm | 56.21 µm | 151.25 µm | 488.95 µm | 19.07 µm | 58.55 µm | 128.24 µm | approximately ten times lower | 78.2% | 1.2% | 20.6% | 99.1% | O=C(O)c1cccnc1Nc1cccc(C(F)(F)F)c1 [NIF original, Niflumic acid] | 2.26 | 4.44 |  | 

SMILES | H2A (non-ionized form) ([1]; pH = 5.0) | HA− (monoanionic form) ([1]; pH = 5.0) | d = 0.1 [2, 5] | d = 0.5 [2, 6] | d = 0.9 [2, 7] | d = 0.1 [2, 8] | d = 0.5 [2, 8] | d = 0.9 [2, 8] | d = 0.1 [2, 9] | d = 0.5 [2, 9] | d = 0.9 [2, 9] | solubility in pH = 5.0 medium compared with pH = 6.5 medium [3] | anionic form [1, 10] | neutral form [1, 10] | zwitterionic form [1, 10] | anionic form ([1]; pH = 6.5, calculated from protonation microconstants) | pKa1 [4] | pKa2 [4] | molecules protonated ([1]; pH = 5.0) | molecule in deprotonated state ([1]; pH = 6.5)
COc1ccc(Cc2nccc3cc(OC)c(OC)cc23)cc1OC [PAP original, papaverine hydrochloride] |  |  | 153.97 µm | 488.62 µm | 887.93 µm | 4.60 µm | 49.42 µm | 189.96 µm | 7.96 µm | 33.39 µm | 98.40 µm |  |  |  |  |  |  |  | 95.8% | approximately 50%
